Experimental data taken from ChEMBL document CHEMBL3045819, “Potent limonoid insect antifeedant from Melia azedarach” (2002).

Tests used:
Type in all cases: functional
Spodoptera eridania [1] = assay: Antifeedant activity against larvae of Spodoptera eridania in Cucurbita maxima leaves at 0.25 ug/cm2 after 24 hr by leaf disk choice test
Spodoptera eridania [2] = assay: Antifeedant activity against larvae of Spodoptera eridania in Cucurbita maxima leaves at 0.5 ug/cm2 after 24 hr by leaf disk choice test
Spodoptera eridania [3] = assay: Antifeedant activity against larvae of Spodoptera eridania in Cucurbita maxima leaves at 1 ug/cm2 after 24 hr by leaf disk choice test
Spodoptera eridania [4] = assay: Antifeedant activity against larvae of Spodoptera eridania in Cucurbita maxima leaves at 4 ug/cm2 after 24 hr by leaf disk choice test
Epilachna [5] = assay: Antifeedant activity against larvae of Epilachna paenulata in Cucurbita maxima leaves at 0.5 ug/cm2 after 24 hr by leaf disc choice test
Epilachna [6] = assay: Antifeedant activity against larvae of Epilachna paenulata in Cucurbita maxima leaves at 1 ug/cm2 after 24 hr by leaf disc choice test
Epilachna [7] = assay: Antifeedant activity against larvae of Epilachna paenulata in Cucurbita maxima leaves at 4 ug/cm2 after 24 hr by leaf disc choice test
Spodoptera eridania [8] = assay: Antifeedant activity against larvae of Spodoptera eridania in Cucurbita maxima leaves at 10 ug/cm2 after 24 hr by leaf disk choice test
Spodoptera eridania [9] = assay: Antifeedant activity against larvae of Spodoptera eridania in Cucurbita maxima leaves at 14 ug/cm2 after 24 hr by leaf disk choice test
Epilachna [10] = assay: Antifeedant activity against larvae of Epilachna paenulata in Cucurbita maxima leaves at 8 ug/cm2 after 24 hr by leaf disc choice test
Epilachna [11] = assay: Antifeedant activity against larvae of Epilachna paenulata in Cucurbita maxima leaves at 10 ug/cm2 after 24 hr by leaf disc choice test

SMILES	AFI (Spodoptera eridania [1]) [%]	AFI (Spodoptera eridania [2]) [%]	AFI (Spodoptera eridania [3]) [%]	AFI (Spodoptera eridania [4]) [%]	AFI (Epilachna [5]) [%]	AFI (Epilachna [6]) [%]	AFI (Epilachna [7]) [%]	AFI (Spodoptera eridania [8]) [%]	AFI (Spodoptera eridania [9]) [%]	AFI (Epilachna [10]) [%]	AFI (Epilachna [11]) [%]
CC(=O)O[C@@H]1C[C@H](O)[C@@]23CO[C@H](O)[C@]1(C)[C@@H]2C[C@@H](O)[C@]1(C)[C@@H]3C(=O)[C@H](O)[C@@]2(C)[C@H](c3ccoc3)C[C@H]3O[C@@]321 [12-HYDROXYAMOORASTATIN]	35.5	57.5	91.2	95.5	36.4	52.1	96.1	–	–	–	–
CC(=O)O[C@@H]1C[C@H](O)[C@@]23CO[C@@H](O)[C@]1(C)[C@@H]2C[C@@H](O)[C@]1(C)[C@@H]3C(=O)[C@H](OC(C)=O)[C@@]2(C)[C@H](c3ccoc3)C[C@H]3O[C@]321 [TOOSENDANIN]	45.8	58.7	65.1	71.8	–	–	54.8	79.3	87.8	78.2	90.7
C/C=C(\C)C(=O)O[C@H]1C[C@@H](OC(C)=O)[C@@]2(C(=O)OC)CO[C@H]3[C@@H](O)[C@@](C)([C@]45O[C@@]4(C)[C@@H]4C[C@H]5O[C@@H]5OC=C[C@@]54O)[C@H]4[C@]1(CO[C@]4(O)C(=O)OC)[C@@H]32 [AZADIRACHTIN A]	57.3	91.2	94.2	94	35.7	62.2	97.6	–	–	–	–
